Where two headings read alike, the source gives them in different places.
What was measured:
[1] = Stability in human serum at 37 °C; assay type: in vitro ADME; conditions: read-out: Stability in human serum, % intact
Procedure: For serum stability, mouse serum or human serum (0.5 mL, both purchased from Sigma-Aldrich) was combined with an aliquot of each of the peptides [^64Cu]1 and [^64Cu]2 (≤25 μL, 14.8–22.2 MBq) and incubated at 37 °C. At each time point (1, 4, and 24 h) an aliquot (50–200 μL) was taken, proteins precipitated with ethanol, and removed by pelleting at 1500 (RCF) for 4 min. The ethanol solution was diluted with water (1 mL) and analyzed by RP-HPLC as previously described.

[2] = Biodistribution in mice bearing BxPC-3 xenograft tumors; assay type: in vivo; conditions: female, athymic nu/nu-nude, mouse, in vivo, total radioactivity; for tissue uptake at 4 h: 4 h p.i.; for tissue uptake at 24 h: 24 h p.i.; for tissue uptake at 48 h: 48 h p.i.
Procedure: (§1) All animal procedures conformed to the Animal Welfare Act and were approved by the University of California, Davis Institutional Animal Care and Use Committee. Female athymic nu/nu-nude mice (6–8 weeks old) were purchased from Charles River Laboratories (Wilmington, MA, USA) and provided food and water on an ad libitum basis. BxPC-3 xenografts were implanted according to previous methods. Briefly, BxPC-3 cells were evaluated by flow cytometry to confirm integrin αvβ6 expression levels, injected subcutaneously into the left flank [5 million in 100 μL of a 1:1 mixture of serum-free RPMI and GFR Matrigel (Corning, New York, NY, USA)], and allowed to grow for approximately 3 weeks until tumors reached a diameter of 0.5–1 cm.
(§2) For biodistribution studies the [^64Cu]1–4 (3.7–5.55 MBq) in PBS (100 μL, pH 7.2) was injected intravenously (i.v.) via catheter into the tail vein. Following a conscious uptake period, the mice were anesthetized (5% isoflurane), euthanized, and dissected ([^64Cu]1 and [^64Cu]2, n = 3/radiolabeled peptide/time point; 4, 24, and 48 h p.i.; the 72 h time point was obtained from the imaging animals after the 72 h PET/CT scans; compounds [^64Cu]3 and [^64Cu]4, n = 2/radiolabeled compound at 4 h p.i.). Tissues were rapidly collected, weighed, and radioactivity measured with a γ-counter. Decay-corrected radioactivity concentrations are expressed as the percentage of injected dose per gram of tissue (% ID/g). Data are reported as mean ± standard deviation (SD) (Figure S20, S21 and S25).

BxPC-3 xenograft tumors = experiment: as above; assay type: in vivo; conditions: for Kidneys uptake: i.v.
Procedure: as §1, §2

[3] = iv, i.v., read-out: Blood uptake
[4] = iv, i.v., read-out: Bone uptake
[5] = iv, i.v., read-out: Brain uptake
[6] = iv, i.v., read-out: BxPC-3 Tumor uptake
[7] = iv, i.v., read-out: Fecal Matter radioactivity
[8] = iv, i.v., read-out: Gall Bladder uptake
[9] = iv, i.v., read-out: Heart uptake
[10] = iv, i.v., read-out: Kidneys uptake
[11] = iv, i.v., read-out: Lg. Intestines uptake
[12] = iv, i.v., read-out: Liver uptake
[13] = iv, i.v., read-out: Lung uptake
[14] = iv, i.v., read-out: Muscle uptake
[15] = iv, i.v., read-out: Pancreas uptake
[16] = iv, i.v., read-out: Skin uptake
[17] = iv, i.v., read-out: Sm. Intestines uptake
[18] = iv, i.v., read-out: Spleen uptake
[19] = iv, i.v., read-out: Stomach uptake
[20] = iv, i.v., read-out: Urine radioactivity

## Cc1cc(-c2ccc(NC(=O)CCC(=O)NCCCC[C@H](NC(=O)CN3CCN(CC(=O)O)CCN(CC(=O)O)CCN(CC(=O)O)CC3)C(=O)NCCOCCOCCOCCOCCOCCOCCOCCOCCOCCOCCOCCOCCOCCOCCOCCOCCOCCOCCOCCOCCOCCOCCOCCOCCOCCOCCOCCOCCC(=O)N[C@@H](CC(N)=O)C(=O)N[C@@H](C)C(=O)N[C@H](C(=O)N3CCC[C@H]3C(=O)N[C@@H](CC(N)=O)C(=O)N[C@@H](CC(C)C)C(=O)N[C@@H](CCCNC(=N)N)C(=O)NCC(=O)N[C@@H](CC(=O)O)C(=O)N[C@@H](CC(C)C)C(=O)N[C@@H](CCC(N)=O)C(=O)N[C@H](C(=O)N[C@@H](CC(C)C)C(=O)N[C@@H](C)C(=O)N[C@@H](CCC(N)=O)C(=O)N[C@@H](CCCNC(=N)N)C(=O)N[C@H](C(=O)N[C@@H](C)C(=O)N[C@@H](CCCNC(=N)N)C(=O)N[C@H](C(=O)NCCOCCOCCOCCOCCOCCOCCOCCOCCOCCOCCOCCOCCOCCOCCOCCOCCOCCOCCOCCOCCOCCOCCOCCOCCOCCOCCOCCOCCC(N)=O)[C@@H](C)O)C(C)C)C(C)C)C(C)C)c(C)c2)ccc1N=Nc1ccc2c(S(=O)(=O)O)cc(S(=O)(=O)O)c(N)c2c1O [[^64Cu]1, [^64Cu]Cu DOTA-EB-αvβ6-BP, metal not drawn]
[1]; 1 h
  remaining at 1 h: 99%
[1]; 4 h
  remaining at 4 h: 89%
[1]; 24 h
  remaining at 24 h: 76%
[2]; [3]
  tissue uptake at 4 h: 1.3 ± 0.31 %ID/g
  tissue uptake at 24 h: 0.33 ± 0.01 %ID/g
  tissue uptake at 48 h: 0.33 ± 0.1 %ID/g
[2]; [4]
  tissue uptake at 4 h: 0.44 ± 0.04 %ID/g
  tissue uptake at 24 h: 0.34 ± 0.13 %ID/g
  tissue uptake at 48 h: 0.3 ± 0.08 %ID/g
[2]; [5]
  tissue uptake at 4 h: 0.09 ± 0.02 %ID/g
  tissue uptake at 24 h: 0.09 ± 0.01 %ID/g
  tissue uptake at 48 h: 0.12 ± 0.02 %ID/g
[2]; [6]
  tissue uptake at 4 h: 5.29 ± 0.59 %ID/g
  tissue uptake at 24 h: 5.03 ± 0.97 %ID/g
  tissue uptake at 48 h: 4 ± 1.51 %ID/g
[2]; [7]
  tissue uptake at 4 h: 3.03 ± 0.67 %ID/g
  tissue uptake at 24 h: 2.85 ± 0.55 %ID/g
  tissue uptake at 48 h: 2.34 ± 0.89 %ID/g
[2]; [8]
  tissue uptake at 4 h: 2.12 ± 0.51 %ID/g
  tissue uptake at 24 h: 1.85 ± 0.27 %ID/g
  tissue uptake at 48 h: 1.75 ± 0.61 %ID/g
[2]; [9]
  tissue uptake at 4 h: 0.99 ± 0.08 %ID/g
  tissue uptake at 24 h: 0.92 ± 0.05 %ID/g
  tissue uptake at 48 h: 1.02 ± 0.17 %ID/g
[2]; [10]
  tissue uptake at 4 h: 75.5 ± 7.26 %ID/g
  tissue uptake at 24 h: 40.5 ± 7.7 %ID/g
  tissue uptake at 48 h: 26.2 ± 5.89 %ID/g
[2]; [11]
  tissue uptake at 4 h: 4.13 ± 0.1 %ID/g
  tissue uptake at 24 h: 3.46 ± 0.45 %ID/g
  tissue uptake at 48 h: 2.65 ± 0.05 %ID/g
[2]; [12]
  tissue uptake at 4 h: 1.64 ± 0.2 %ID/g
  tissue uptake at 24 h: 2.09 ± 0.1 %ID/g
  tissue uptake at 48 h: 2.59 ± 0.51 %ID/g
[2]; [13]
  tissue uptake at 4 h: 2.71 ± 0.57 %ID/g
  tissue uptake at 24 h: 2.79 ± 1.62 %ID/g
  tissue uptake at 48 h: 2.33 ± 0.32 %ID/g
[2]; [14]
  tissue uptake at 4 h: 0.67 ± 0.1 %ID/g
  tissue uptake at 24 h: 0.5 ± 0.2 %ID/g
  tissue uptake at 48 h: 0.49 ± 0.07 %ID/g
[2]; [15]
  tissue uptake at 4 h: 0.46 ± 0.06 %ID/g
  tissue uptake at 24 h: 0.48 ± 0.03 %ID/g
  tissue uptake at 48 h: 0.41 ± 0.2 %ID/g
[2]; [16]
  tissue uptake at 4 h: 1.56 ± 0.34 %ID/g
  tissue uptake at 24 h: 1.08 ± 0.3 %ID/g
  tissue uptake at 48 h: 1.12 ± 0.18 %ID/g
[2]; [17]
  tissue uptake at 4 h: 4.72 ± 0.55 %ID/g
  tissue uptake at 24 h: 2.78 ± 0.31 %ID/g
  tissue uptake at 48 h: 1.85 ± 0.07 %ID/g
[2]; [18]
  tissue uptake at 4 h: 0.32 ± 0.28 %ID/g
  tissue uptake at 24 h: 0.56 ± 0.16 %ID/g
  tissue uptake at 48 h: 0.5 ± 0.18 %ID/g
[2]; [19]
  tissue uptake at 4 h: 6.41 ± 0.64 %ID/g
  tissue uptake at 24 h: 4.18 ± 0.54 %ID/g
  tissue uptake at 48 h: 3.02 ± 0.52 %ID/g
[2]; [20]
  tissue uptake at 4 h: 19.6 ± 10.5 %ID/g
  tissue uptake at 24 h: 5.01 ± 0.29 %ID/g
  tissue uptake at 48 h: 3.92 ± 1.05 %ID/g
[2]; iv, 72 h p.i., i.v., read-out: Blood uptake
  tissue uptake at 72 h: 0.35 ± 0.08 %ID/g
[2]; iv, 72 h p.i., i.v., read-out: Bone uptake
  tissue uptake at 72 h: 0.25 ± 0.13 %ID/g
[2]; iv, 72 h p.i., i.v., read-out: Brain uptake
  tissue uptake at 72 h: 0.16 ± 0.04 %ID/g
[2]; iv, 72 h p.i., i.v., read-out: BxPC-3 Tumor uptake
  tissue uptake at 72 h: 3.32 ± 0.46 %ID/g
[2]; iv, 72 h p.i., i.v., read-out: Fecal Matter radioactivity
  tissue uptake at 72 h: 1.81 ± 0.74 %ID/g
[2]; iv, 72 h p.i., i.v., read-out: Gall Bladder uptake
  tissue uptake at 72 h: 1.75 ± 0.65 %ID/g
[2]; iv, 72 h p.i., i.v., read-out: Heart uptake
  tissue uptake at 72 h: 1.15 ± 0.2 %ID/g
[2]; iv, 72 h p.i., i.v., read-out: Kidneys uptake
  tissue uptake at 72 h: 20 ± 6.91 %ID/g
[2]; iv, 72 h p.i., i.v., read-out: Lg. Intestines uptake
  tissue uptake at 72 h: 1.95 ± 0.29 %ID/g
[2]; iv, 72 h p.i., i.v., read-out: Liver uptake
  tissue uptake at 72 h: 2.36 ± 0.51 %ID/g
[2]; iv, 72 h p.i., i.v., read-out: Lung uptake
  tissue uptake at 72 h: 1.88 ± 0.11 %ID/g
[2]; iv, 72 h p.i., i.v., read-out: Muscle uptake
  tissue uptake at 72 h: 0.44 ± 0.12 %ID/g
[2]; iv, 72 h p.i., i.v., read-out: Pancreas uptake
  tissue uptake at 72 h: 0.59 ± 0.12 %ID/g
[2]; iv, 72 h p.i., i.v., read-out: Skin uptake
  tissue uptake at 72 h: 0.88 ± 0.12 %ID/g
[2]; iv, 72 h p.i., i.v., read-out: Sm. Intestines uptake
  tissue uptake at 72 h: 1.38 ± 0.18 %ID/g
[2]; iv, 72 h p.i., i.v., read-out: Spleen uptake
  tissue uptake at 72 h: 0.58 ± 0.16 %ID/g
[2]; iv, 72 h p.i., i.v., read-out: Stomach uptake
  tissue uptake at 72 h: 2.02 ± 0.16 %ID/g
[2]; iv, 72 h p.i., i.v., read-out: Urine radioactivity
  tissue uptake at 72 h: 3.17 ± 1.58 %ID/g
[2]; 72 h, read-out: GI uptake
  tissue uptake at 72 h: < 3.2 %ID/g
[2]; throughout 4–72 h, read-out: Liver uptake throughout
  tissue uptake: < 3 %ID/g
BxPC-3 xenograft tumors; 4 h p.i.
  Tumor-Blood ratio: > 4/1
  Tumor-Kidney ratio: 0.07 ± 0.003
  Tumor-Lg Intestines ratio: 1.28 ± 0.12
  Tumor-Liver ratio: 3.2–4.9
  Tumor-Muscle ratio: > 8/1
  Tumor-Sm Intestines ratio: 1.12 ± 0.05
  Tumor-Stomach ratio: 0.83 ± 0.03
  Kidneys uptake: 75.5 ± 7.3 % ID/g
BxPC-3 xenograft tumors; 4 h p.i., listed as [64Cu]1
  Tumor-Blood ratio: 4.30 ± 1.47
  Tumor-Liver ratio: 3.24 ± 0.14
  Tumor-Muscle ratio: 7.95 ± 0.55
BxPC-3 xenograft tumors; 24 h p.i.
  Tumor-Blood ratio: 15.41 ±3.77
  Tumor-Kidney ratio: 0.13 ± 0.06
  Tumor-Lg Intestines ratio: 1.41 ±0.43
  Tumor-Liver ratio: 2.39 ± 0.59
  Tumor-Muscle ratio: 9.47 ±4.84
  Tumor-Sm Intestines ratio: 1.75 ±0.52
  Tumor-Stomach ratio: 1.19 ±0.02
BxPC-3 xenograft tumors; 48 h p.i.
  Tumor-Blood ratio: 12.03± 1.44
  Tumor-Kidney ratio: 0.15 ± 0.02
  Tumor-Lg Intestines ratio: 1.51 ± 0.58
  Tumor-Liver ratio: 1.51 ± 0.29
  Tumor-Muscle ratio: 8.39 ± 3.59
  Tumor-Sm Intestines ratio: 2.18 ± 0.91
  Tumor-Stomach ratio: 1.41 ± 0.79
BxPC-3 xenograft tumors; 72 h
  Fold higher liver uptake than [64Cu]2: > 1.8 fold
BxPC-3 xenograft tumors; 72 h p.i.
  Tumor-Blood ratio: 10.07 ± 3.24
  Tumor-Kidney ratio: 0.19 ± 0.08
  Tumor-Lg Intestines ratio: 1.75 ±0.48
  Tumor-Liver ratio: 1.47 ± 0.47
  Tumor-Muscle ratio: 8.11 ±3.02
  Tumor-Sm Intestines ratio: 2.43 ±0.45
  Tumor-Stomach ratio: 1.65 ±0.32
  Kidneys uptake: 20.0 ± 6.9 % ID/g
BxPC-3 xenograft tumors; BxPC-3 tumor model
  Fold increase in tumor accumulation over non-ABM [64Cu]Cu DOTA-αvβ6-BP: > 3 fold
BxPC-3 xenograft tumors; for at least 48 h
  Fold higher kidney uptake than [64Cu]2: > 1.7 fold
